According to PubChem BioAssay (NCI):
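These data come from cells grown in 96-well plates and exposed to compound for 48 hours at five concentrations. At the GI50, growth is halved. TGI: concentration producing complete growth inhibition.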

What was measured:
Experiment in all cases: NCI anticancer screen, dose series, 48 h
HCC-2998 colon = tested on: HCC-2998 colon
T-47D breast = tested on: T-47D breast
OVCAR-4 ovarian = tested on: OVCAR-4 ovarian
MDA-MB-435 = tested on: MDA-MB-435
HT29 colon = tested on: HT29 colon
A498 renal = tested on: A498 renal
COLO 205 colon = tested on: COLO 205 colon
OVCAR-3 ovarian = tested on: OVCAR-3 ovarian
OVCAR-5 ovarian = tested on: OVCAR-5 ovarian
NCI-H226 lung = tested on: NCI-H226 lung
NCI-H522 lung = tested on: NCI-H522 lung
HL-60(TB) leukemia = tested on: HL-60(TB) leukemia
NCI-H23 lung = tested on: NCI-H23 lung
A549 NSCLC = tested on: A549 NSCLC
UACC-257 melanoma = tested on: UACC-257 melanoma
SK-MEL-28 melanoma = tested on: SK-MEL-28 melanoma
RPMI-8226 leukemia = tested on: RPMI-8226 leukemia
TK-10 renal = tested on: TK-10 renal
EKVX NSCLC = tested on: EKVX NSCLC
HS 578T breast = tested on: HS 578T breast
SNB-75 CNS = tested on: SNB-75 CNS
KM12 colon = tested on: KM12 colon
K-562 leukemia = tested on: K-562 leukemia
SK-MEL-2 melanoma = tested on: SK-MEL-2 melanoma
NCI-H460 lung = tested on: NCI-H460 lung
PC-3 prostate = tested on: PC-3 prostate
UO-31 renal = tested on: UO-31 renal
786-0 renal = tested on: 786-0 renal
U251 CNS = tested on: U251 CNS
SN12C renal = tested on: SN12C renal
HCT-15 colon = tested on: HCT-15 colon
M14 melanoma = tested on: M14 melanoma
MCF7 breast = tested on: MCF7 breast
SW-620 colon = tested on: SW-620 colon
SNB-19 CNS = tested on: SNB-19 CNS
MOLT-4 leukemia = tested on: MOLT-4 leukemia
UACC-62 melanoma = tested on: UACC-62 melanoma
HOP-92 NSCLC = tested on: HOP-92 NSCLC
HCT-116 colon = tested on: HCT-116 colon
BT-549 breast = tested on: BT-549 breast
ACHN renal = tested on: ACHN renal
CCRF-CEM leukemia = tested on: CCRF-CEM leukemia
RXF 393 renal = tested on: RXF 393 renal
SF-295 CNS = tested on: SF-295 CNS
SF-268 CNS = tested on: SF-268 CNS
MDA-MB-231 breast = tested on: MDA-MB-231 breast
IGROV1 ovarian = tested on: IGROV1 ovarian
CAKI-1 renal = tested on: CAKI-1 renal
NCI/ADR-RES ovarian = tested on: NCI/ADR-RES ovarian
SF-539 CNS = tested on: SF-539 CNS
HOP-62 NSCLC = tested on: HOP-62 NSCLC
OVCAR-8 ovarian = tested on: OVCAR-8 ovarian
SK-MEL-5 melanoma = tested on: SK-MEL-5 melanoma
MALME-3M melanoma = tested on: MALME-3M melanoma
LOX IMVI melanoma = tested on: LOX IMVI melanoma
DU-145 prostate = tested on: DU-145 prostate

Cc1cc([C@H](C)Nc2nccc(N3C(=O)OC[C@@H]3[C@H](C)F)n2)ncc1-c1ccnc(C(F)(F)F)c1
GI50 (HCC-2998 colon): 72.6 µM | TGI (HCC-2998 colon): > 100 µM | GI50 (T-47D breast): 16.4 µM | TGI (T-47D breast): > 100 µM | GI50 (OVCAR-4 ovarian): 31.2 µM | TGI (OVCAR-4 ovarian): > 100 µM | GI50 (MDA-MB-435): 41.1 µM | TGI (MDA-MB-435): > 100 µM | GI50 (HT29 colon): 35.6 µM | TGI (HT29 colon): > 100 µM | GI50 (A498 renal): 15.6 µM | TGI (A498 renal): 92.1 µM | GI50 (COLO 205 colon): 21.9 µM | TGI (COLO 205 colon): 62.9 µM | GI50 (OVCAR-3 ovarian): 36.3 µM | TGI (OVCAR-3 ovarian): > 100 µM | GI50 (OVCAR-5 ovarian): > 100 µM | TGI (OVCAR-5 ovarian): > 100 µM | GI50 (NCI-H226 lung): 30.5 µM | TGI (NCI-H226 lung): > 100 µM | GI50 (NCI-H522 lung): 31.7 µM | TGI (NCI-H522 lung): > 100 µM | GI50 (HL-60(TB) leukemia): 35.7 µM | TGI (HL-60(TB) leukemia): > 100 µM | GI50 (NCI-H23 lung): 17 µM | TGI (NCI-H23 lung): > 100 µM | GI50 (A549 NSCLC): 29.8 µM | TGI (A549 NSCLC): > 100 µM | GI50 (UACC-257 melanoma): 30.5 µM | TGI (UACC-257 melanoma): > 100 µM | GI50 (SK-MEL-28 melanoma): 48.8 µM | TGI (SK-MEL-28 melanoma): > 100 µM | GI50 (RPMI-8226 leukemia): 16.7 µM | TGI (RPMI-8226 leukemia): > 100 µM | GI50 (TK-10 renal): 53 µM | TGI (TK-10 renal): > 100 µM | GI50 (EKVX NSCLC): 19.2 µM | TGI (EKVX NSCLC): > 100 µM | GI50 (HS 578T breast): 39.2 µM | TGI (HS 578T breast): > 100 µM | GI50 (SNB-75 CNS): 88.2 µM | TGI (SNB-75 CNS): > 100 µM | GI50 (KM12 colon): 33.8 µM | TGI (KM12 colon): > 100 µM | GI50 (K-562 leukemia): 37.1 µM | TGI (K-562 leukemia): > 100 µM | GI50 (SK-MEL-2 melanoma): 40.2 µM | TGI (SK-MEL-2 melanoma): > 100 µM | GI50 (NCI-H460 lung): 37.4 µM | TGI (NCI-H460 lung): > 100 µM | GI50 (PC-3 prostate): 31.3 µM | TGI (PC-3 prostate): > 100 µM | GI50 (UO-31 renal): 6.08 µM | TGI (UO-31 renal): > 100 µM | GI50 (786-0 renal): 42.4 µM | TGI (786-0 renal): > 100 µM | GI50 (U251 CNS): 39.5 µM | TGI (U251 CNS): > 100 µM | GI50 (SN12C renal): 44.5 µM | TGI (SN12C renal): > 100 µM | GI50 (HCT-15 colon): 35.5 µM | TGI (HCT-15 colon): > 100 µM | GI50 (M14 melanoma): 37.7 µM | TGI (M14 melanoma): > 100 µM | GI50 (MCF7 breast): 26.7 µM | TGI (MCF7 breast): > 100 µM | GI50 (SW-620 colon): 46.6 µM | TGI (SW-620 colon): > 100 µM | GI50 (SNB-19 CNS): 39 µM | TGI (SNB-19 CNS): > 100 µM | GI50 (MOLT-4 leukemia): 34.6 µM | TGI (MOLT-4 leukemia): > 100 µM | GI50 (UACC-62 melanoma): 21.7 µM | TGI (UACC-62 melanoma): > 100 µM | GI50 (HOP-92 NSCLC): 14.9 µM | TGI (HOP-92 NSCLC): > 100 µM | GI50 (HCT-116 colon): 22.7 µM | TGI (HCT-116 colon): > 100 µM | GI50 (BT-549 breast): 18.1 µM | TGI (BT-549 breast): 82.6 µM | GI50 (ACHN renal): 24.7 µM | TGI (ACHN renal): > 100 µM | GI50 (CCRF-CEM leukemia): 38.1 µM | TGI (CCRF-CEM leukemia): > 100 µM | GI50 (RXF 393 renal): 11.3 µM | TGI (RXF 393 renal): 86.4 µM | GI50 (SF-295 CNS): 20.1 µM | TGI (SF-295 CNS): > 100 µM | GI50 (SF-268 CNS): 54 µM | TGI (SF-268 CNS): > 100 µM | GI50 (MDA-MB-231 breast): 34.5 µM | TGI (MDA-MB-231 breast): > 100 µM | GI50 (IGROV1 ovarian): 25.9 µM | TGI (IGROV1 ovarian): > 100 µM | GI50 (CAKI-1 renal): 27.8 µM | TGI (CAKI-1 renal): > 100 µM | GI50 (NCI/ADR-RES ovarian): 23.3 µM | TGI (NCI/ADR-RES ovarian): > 100 µM | GI50 (SF-539 CNS): 61.3 µM | TGI (SF-539 CNS): > 100 µM | GI50 (HOP-62 NSCLC): 28.7 µM | TGI (HOP-62 NSCLC): > 100 µM | GI50 (OVCAR-8 ovarian): 33.5 µM | TGI (OVCAR-8 ovarian): > 100 µM | GI50 (SK-MEL-5 melanoma): 12.1 µM | TGI (SK-MEL-5 melanoma): 33 µM | GI50 (MALME-3M melanoma): 24.2 µM | TGI (MALME-3M melanoma): > 100 µM | GI50 (LOX IMVI melanoma): 36.5 µM | TGI (LOX IMVI melanoma): > 100 µM | GI50 (DU-145 prostate): 75.6 µM | TGI (DU-145 prostate): > 100 µM
